Earlier results on four molecules are cited in US6759063B2, “Methods and compositions for reducing sympathomimetic-induced side effects” (priority 1999, dated 2004).

The test system of data set [1] is cloned human alpha1A- and alpha1B-adrenoceptors. The following applies: phenylephrine-stimulated; cloned receptors.
The subject of data set [2] is human alpha1-adrenoceptors. The following applies: up to the highest concentration that could be tested.
For data set [3] the following is noted: separate studies.
The conditions of data set [4]: rodents and humans.
For data set [5] the following is noted: 150 mg/day; obese outpatients.

Regarding `CC[C@H](CC[C@@H](C)[C@H]1CC[C@H]2[C@@H]3CC=C4C[C@@H](O)CC[C@]4(C)[C@H]3CC[C@]12C)C(C)C` [beta-sitosterol], the “inhibition of agonist-induced [3H]inositol phosphate formation” value in data set [1] is on record as “without consistent inhibitory effect”. For the same molecule, the “inhibition of radioligand binding to human alpha1-adrenoceptors” value in data set [2] is listed as “without consistent inhibitory effect”. Regarding `CCN[C@@H](C)Cc1cccc(C(F)(F)F)c1` [dexfenfluramine], the “weight loss in obese patients” value in data set [3] is listed as “promote weight loss”. For the molecule `Cn1c(=O)c2c(ncn2C)n(C)c1=O` [caffeine], in data set [4], the “thermogenic and anti-obesity properties” value was “no effect”. As for `CN[C@@H](C)[C@H](O)c1ccccc1` [ephedrine], the “thermogenic and anti-obesity properties” value in data set [4] is “potent thermogenic and anti-obesity properties”. Further, in data set [5], the “adverse side effects versus placebo group” value is on record as “significantly greater adverse side effects”.
